Experimental data reported in PubChem BioAssay AID248 (DTP/NCI, 2004).
Where “and” joins values, the source holds several entries; their conditions need not be identical. Equal entries are not always repeated. Toxic doses and inconclusive results are not listed. Rule as the data show it: active = T/C of 150% or more; inactive = T/C below 125%.

Tested on: L1210 leukemia ip in BDF1 mice, survival T/C
Assay: NCI In Vivo Anticancer Drug Screen. Data for tumor model L1210 Leukemia (intraperitoneal) in B6D2F1 (BDF1) mice
Details: endpoint: mean survival time, higher = longer survival
Outline: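 Each compound was tested against a transplantable tumor grown in mice. The endpoint was survival, with treated animals benchmarked against vehicle controls as a simple ratio.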

[1] = dose: 50.0 mg/kg/injection, schedule: Q01DX001 (ip), vehicle: carboxymethylcellulose (CMC)
[2] = dose: 100.0 mg/kg/injection, schedule: Q01DX001 (ip), vehicle: carboxymethylcellulose (CMC)
[3] = dose: 200.0 mg/kg/injection, schedule: Q01DX001 (ip), vehicle: carboxymethylcellulose (CMC)
[4] = dose: 400.0 mg/kg/injection, schedule: Q01DX001 (ip), vehicle: carboxymethylcellulose (CMC)
[5] = dose: 100.0 mg/kg/injection, schedule: Q04DX003 (ip), vehicle: Klucel (hydroxypropylcellulose) (HPC)
[6] = dose: 100.0 mg/kg/injection, schedule: Q01DX001 (ip), vehicle: saline with Tween-80
[7] = dose: 200.0 mg/kg/injection, schedule: Q01DX001 (ip), vehicle: saline with Tween-80
[8] = dose: 400.0 mg/kg/injection, schedule: Q01DX001 (ip), vehicle: saline with Tween-80
[9] = dose: 200.0 mg/kg/injection, schedule: Q04DX003 (ip), vehicle: saline with Tween-80
[10] = dose: 400.0 mg/kg/injection, schedule: Q04DX003 (ip), vehicle: saline with Tween-80
[11] = dose: 100.0 mg/kg/injection, schedule: Q01DX009 (ip), vehicle: Klucel (hydroxypropylcellulose) (HPC)
[12] = dose: 200.0 mg/kg/injection, schedule: Q01DX009 (ip), vehicle: Klucel (hydroxypropylcellulose) (HPC)
[13] = dose: 200.0 mg/kg/injection, schedule: Q04DX003 (ip), vehicle: Klucel (hydroxypropylcellulose) (HPC)
[14] = dose: 400.0 mg/kg/injection, schedule: Q01DX009 (ip), vehicle: Klucel (hydroxypropylcellulose) (HPC)
[15] = dose: 400.0 mg/kg/injection, schedule: Q04DX003 (ip), vehicle: Klucel (hydroxypropylcellulose) (HPC)
[16] = dose: 100.0 mg/kg/injection, schedule: Q01DX001 (ip), vehicle: saline
[17] = dose: 200.0 mg/kg/injection, schedule: Q01DX001 (ip), vehicle: saline
[18] = dose: 400.0 mg/kg/injection, schedule: Q01DX001 (ip), vehicle: saline
[19] = dose: 100.0 mg/kg/injection, schedule: Q01DX009 (ip), vehicle: saline with Tween-80
[20] = dose: 200.0 mg/kg/injection, schedule: Q01DX009 (ip), vehicle: saline with Tween-80
[21] = dose: 400.0 mg/kg/injection, schedule: Q01DX009 (ip), vehicle: saline with Tween-80
[22] = dose: 100.0 mg/kg/injection, schedule: Q04DX003 (ip), vehicle: saline with Tween-80

Measured: T/C

CCOP(=O)(Nc1ccc2c(c1)Cc1c-2cc(Cl)c(NC(C)=O)c1Cl)OCC
inactive: [1] 97 % of control | [2] 92 % of control | [3] 94 % of control | [4] 92 % of control

O=C(NCc1ccco1)NCc1ccco1
inactive: dose: 25.0 mg/kg/injection, schedule: Q01DX009 (ip), vehicle: Klucel (hydroxypropylcellulose) (HPC) 91 % of control | dose: 25.0 mg/kg/injection, schedule: Q04DX003 (ip), vehicle: Klucel (hydroxypropylcellulose) (HPC) 103 % of control | dose: 50.0 mg/kg/injection, schedule: Q01DX009 (ip), vehicle: Klucel (hydroxypropylcellulose) (HPC) 96 % of control | dose: 50.0 mg/kg/injection, schedule: Q04DX003 (ip), vehicle: Klucel (hydroxypropylcellulose) (HPC) 97 % of control | [5] 98 % of control and 101 % of control

NC(N)=N/N=C(/c1cccs1)C1CC1
inactive: dose: 15.0 mg/kg/injection, schedule: Q01DX Z (ip), vehicle: methylcellulose (MC) 101 % of control | dose: 15.0 mg/kg/injection, schedule: Q01DX Z (oral), vehicle: methylcellulose (MC) 92 % of control | dose: 30.0 mg/kg/injection, schedule: Q01DX Z (ip), vehicle: methylcellulose (MC) 96 % of control | dose: 30.0 mg/kg/injection, schedule: Q01DX Z (oral), vehicle: methylcellulose (MC) 97 % of control | dose: 60.0 mg/kg/injection, schedule: Q01DX Z (ip), vehicle: methylcellulose (MC) 110 % of control | dose: 120.0 mg/kg/injection, schedule: Q01DX Z (ip), vehicle: methylcellulose (MC) 97 % of control

CCOC(=O)CSc1nc2ccccc2[nH]1
inactive: [6] 97 % of control | [7] 98 % of control | [8] 93 % of control

CC1=C(c2ccccc2)C(c2ccccc2)=CC1=O
inactive: [1] 95 % of control | [2] 92 % of control | [3] 92 % of control | [4] 95 % of control

CCCCCCCCCCCCN1CCSCC1
inactive: dose: 25.0 mg/kg/injection, schedule: Q04DX003 (ip), vehicle: saline with Tween-80 95 % of control and 105 % of control | dose: 50.0 mg/kg/injection, schedule: Q04DX003 (ip), vehicle: saline with Tween-80 104 % of control and 90 % of control | [6] 105 % of control and 117 % of control | dose: 100.0 mg/kg/injection, schedule: Q04DX002 (ip), vehicle: saline with Tween-80 95 % of control and 113 % of control | [7] 94 % of control and 117 % of control | dose: 200.0 mg/kg/injection, schedule: Q04DX002 (ip), vehicle: saline with Tween-80 95 % of control and 113 % of control | [9] 93 % of control and 104 % of control and 110 % of control | [8] 97 % of control and 104 % of control | dose: 400.0 mg/kg/injection, schedule: Q04DX002 (ip), vehicle: saline with Tween-80 97 % of control and 98 % of control | [10] 108 % of control and 90 % of control

O=c1[nH]cc(S(=O)(=O)Nc2ccccc2)c(=O)[nH]1
inactive: dose: 25.0 mg/kg/injection, schedule: Q01DX001 (ip), vehicle: saline with Tween-80 106 % of control | dose: 50.0 mg/kg/injection, schedule: Q01DX001 (ip), vehicle: saline with Tween-80 103 % of control | [6] 103 % of control

O=C1CC2CC1C1CC(Br)C(Br)C21 (stereo unspecified)
inactive: dose: 100.0 mg/kg/injection, schedule: Q04DX003 (ip), vehicle: acetone 97 % of control | dose: 200.0 mg/kg/injection, schedule: Q04DX003 (ip), vehicle: acetone 97 % of control | dose: 400.0 mg/kg/injection, schedule: Q04DX003 (ip), vehicle: acetone 92 % of control

COc1ccc(CCN2COc3ccc4ccc(=O)oc4c3C2)cc1OC
inactive: dose: 100.0 mg/kg/injection, schedule: Q04DX003 (ip), vehicle: saline sonified 111 % of control | dose: 200.0 mg/kg/injection, schedule: Q04DX003 (ip), vehicle: saline sonified 111 % of control | dose: 400.0 mg/kg/injection, schedule: Q04DX003 (ip), vehicle: saline sonified 106 % of control

CCOc1ccc(/C=C2\N=C(c3ccccc3)OC2=O)cc1
inactive: [11] 98 % of control | [5] 100 % of control | [12] 88 % of control | [13] 100 % of control | [14] 93 % of control | [15] 98 % of control

O=C(O)C1CC(c2ccccc2)=NN1c1ccccc1 (stereo unspecified)
inactive: dose: 100.0 mg/kg/injection, schedule: Q01DX001 (ip), vehicle: Klucel (hydroxypropylcellulose) (HPC) 104 % of control | dose: 200.0 mg/kg/injection, schedule: Q01DX001 (ip), vehicle: Klucel (hydroxypropylcellulose) (HPC) 90 % of control | dose: 400.0 mg/kg/injection, schedule: Q01DX001 (ip), vehicle: Klucel (hydroxypropylcellulose) (HPC) 93 % of control

Oc1ccc(Cl)cc1N=Cc1ccccc1
inactive: [16] 100 % of control | [17] 105 % of control | [18] 107 % of control

ClCCNCc1ccc(Nc2ccnc3cc(Cl)ccc23)cc1
inactive: dose: 75.0 mg/kg/injection, schedule: Q01DX001 (ip), vehicle: carboxymethylcellulose (CMC) 103 % of control

CC(C)C1=CCC2C(=C1)CCC1C(C)(C(N)=O)CCCC21C (stereo unspecified)
inactive: [19] 102 % of control | [20] 92 % of control | [21] 89 % of control

CCCCn1c(=O)cc[nH]c1=O
inactive: [5] 99 % of control | [13] 91 % of control | [15] 93 % of control

O=C(O)C1CCCCC1C(=O)Nc1ccc(F)cc1 (stereo unspecified)
inactive: [19] 103 % of control | [22] 102 % of control | [20] 90 % of control | [9] 102 % of control | [21] 105 % of control | [10] 96 % of control

CSc1ccc(NC(=O)Nc2cccc(C)n2)cc1
inactive: [11] 98 % of control | [5] 95 % of control | [12] 108 % of control | [13] 93 % of control | [14] 97 % of control | [15] 97 % of control

O=P(O)(c1ccccc1)c1cccc(Cl)c1
inactive: [22] 100 % of control | [9] 91 % of control | [10] 94 % of control

C#CCCCCCl
inactive: dose: 100.0 mg/kg/injection, schedule: Q01DX001 (ip), vehicle: other 103 % of control | dose: 200.0 mg/kg/injection, schedule: Q01DX001 (ip), vehicle: other 104 % of control | dose: 400.0 mg/kg/injection, schedule: Q01DX001 (ip), vehicle: other 108 % of control

CCOCCOC(=O)CSCC(=O)OCCOCC
inactive: [16] 93 % of control | [17] 104 % of control | [18] 109 % of control
